“Also recorded” adds a separate entry of the source. Where no end group is shown, it is not given here.
Experiments:
human muscle cells = assay: IL-6 production dose response in human muscle cells; format: cell-based; conditions: FIG. 12
Description: Differentiation medium consisted of high glucose Glutamax DMEM supplemented with penicillin (100 units/ml), streptomycin (100 μg/ml) and insulin (10 μg/mL).
Using similar methods as described for the C2C12 experiments, a number of QSPs were tested for a dose response relation in human muscle cells.

[1] = test system: IL-6 production by C2C12 myotubes; assay: IL-6 production by C2C12 myotubes (sandwich ELISA); format: cell-based, mouse; conditions: for Effect: inflammation (IL-6 production, hit direction): screening at 1 μM
Description: C2C12 myoblasts (2.5×10^4 cells/well) were seeded in 96-well plates and incubated until they reached 80% confluency, after which the proliferation medium was removed and replaced by differentiation medium. After 6 days of incubation with daily renewed differentiation medium, the cells were treated with 1 μM of QSM, placebo or positive control (LPS) for 24 hours. IL-6 levels were determined in the supernatants using a sandwich ELISA (eBioscience), using IL-6 capture antibody, blocking solution, samples and standards, IL-6 detection antibody, avidin-horseradish peroxidase and substrate solution which were added sequentially, with washing steps in between. After stopping the reaction with H2SO4 solution, the absorbance was measured at 450 nm and 570 nm (correction wavelength) using a microplate reader (ThermoLab Systems). Concentrations were determined using the standard curves generated with known concentrations of IL-6.
Several pro-inflammatory cytokines are elevated in sepsis, cancer, ageing and other catabolic diseases. They are thought to trigger muscle wasting (partly) through NF-kB pathways. […] In these screening experiments, the effects of QSM on myotube IL-6 production were assessed using a sandwich ELISA.
In a further set of experiments, using similar methods as described for the screening experiments, a number of QSPs were tested for a dose response relation in C2C12 cells.

[2] = test system: GDF15 production by C2C12 myotubes; assay: GDF15 production by C2C12 myotubes (sandwich ELISA), mitochondrial changes; format: cell-based, mouse; conditions: for GDF15 secretion, effect relative to median: QSM 1 μM, C2C12 myotubes; for Effect: GDF15 (hit direction): screening at 1 μM
Description: GDF15 levels were determined in the supernatants of C2C12 cells after QSM, placebo or positive control (oligomyin) treatment, using a sandwich ELISA (R&D Systems). A similar protocol as described for the IL-6 determination was used.
GDF15 is considered a useful biomarker for direct or indirect changes in mitochondrial function. Moreover, GDF15 is implicated in muscle wasting diseases like sarcopenia, chronic obstructive pulmonary disease cachexia and critical illness.

C2C12 myoblasts [3] = assay: MTT cell viability assay in C2C12 myoblasts; conditions: for Effect: viability (hit direction): screening at 1 μM, hit selection by MAD/quartile/SSMD/robust SSMD
Description: The mouse myoblast C2C12 cell line (ATCC, CRL-1772) was cultured at 37° C. in a 5% CO2 humidified incubator in Dulbecco's modified Eagle medium (DMEM; Thermo Fisher Scientific). For C2C12 cell proliferation, the medium was supplemented with 10% fetal bovine serum (FBS; Thermo Fisher Scientific), 100 units/ml penicillin, and 100 μg/ml streptomycin (1% Pen/Strep; Thermo Fisher Scientific). The proliferation medium was renewed each 2-3 days and confluency was kept below 80%. For differentiation of the C2C12 myoblasts into myotubes, proliferation medium was replaced by differentiation medium when cells reached 80% confluency.
Viability of QSM was assessed using the 3-(4,5-dimethylthiazol-2-yl)-2,5-diphenyltetrazolium bromide (MTT) assay. Briefly, C2C12 myoblasts were seeded in a 96-well plate (3×10^4 cells/well). 24 hours post-seeding, the wells were treated with QSM (1 μM), placebo or positive control (DMSO 2%) and incubated for 24 hours at 37° C. Next, 20 μL of MTT reagent (5 mg/mL; Sigma-Aldrich) was added to each well and the plates were returned to the incubator for 2.5 hours. After incubation, supernatant was removed from the wells and 150 μL of DMSO was added to release and dissolve the formazan crystals. Absorbance was measured at 570 nm using a microplate reader (Thermo Fisher).
The MTT assay is a widely validated and accepted viability assay for screening experiments. In this assay, the reduction of MTT into formazan, catalysed by living cell enzymes, is used as a marker of cell viability. If QSM are cytotoxic or cytostatic towards C2C12 cells, a decrease in MTT reduction is expected (viability less than 100%), while an increased C2C12 proliferation caused by QSM will result in an increased MTT reduction (viability more than 100%).
In a further set of experiments, the dose response effect of QSPs Q22 and Q184 was assessed on MTT reduction of C2C12 myotubes (tables 7.4 and 7.5).

C2C12 cells = assay: Co-treatment of C2C12 cells with QSP and ala-scan derivative, IL-6 response; format: cell-based, mouse
From the text: Means±SEM, n=6. * P<0.05; ** P<0.01, *** P<0.001; paired Student's t test.

C2C12 myoblasts [4] = assay: Differentiation of C2C12 myoblasts into myotubes (LADD stain, ImageJ); format: cell-based, mouse; conditions: screening at 1 μM, myotube formation
Description: Differentiation medium consisted of DMEM supplemented with 2% horse serum (HS; Thermo Fisher Scientific) and 1% Pen/Strep. All experiments were done with C2C12 passage numbers below 30.
C2C12 myoblasts (1×10^4 cells/well) were seeded in 48-well plates and incubated until they reached 80% confluency, after which the proliferation medium was removed and replaced by differentiation medium (d0). The differentiation medium was renewed at d3. QSM (1 μM), placebo or positive controls (vitamin D3) were added to the cells together with the differentiation medium at d0 and d3. After 6 days of incubation (d6), myotubes were stained with the combined nuclear and cytoplasmatic LADD Multiple Stain (as described in R. McColl, M. Nkosi, C. Snyman, C. Niesler, Analysis and quantification of in vitro myoblast fusion using the LADD Multiple Stain, Biotechniques 61(6) (2016) 323-326). LADD Multiple Stain is a solution containing toluidine blue (VWR) and basic fuchsin (Fluka) in 30% (v/v) ethanol. The stained myotubes were assessed under a phase-contrast microscope equipped with a camera (Olympus CKX53) at a total magnification of 100×. Five different images were taken per well. The amount of myotube formation was automatically quantified using ImageJ software.
Mimicking the in vivo muscle physiology, C2C12 myoblasts are able to differentiate into myotubes when they are adjacent to each other and a differentiating extracellular medium is present. Muscle wasting diseases are characterized by a decreased myotube formation. To evaluate the effects of QSM on the differentiation capacities of C2C12 myoblasts, the C2C12 cells were treated in differentiation medium with QSM at d0 and d3, and evaluated the myotube formation at d6. At d6, the staining protocol of McColl et al. was used to visualize the myotubes (references see above). The differentiation capacity of all QSM was between 71% (Q013) and 145% (AI-2) relative to the median of all samples (FIG. 1).

ESRVSRIILDFLFQRKK [Q055]
dose response relation, IL6 production (human muscle cells): Typical curves were obtained | Relative IL-6 ([1]; concentration 0.20 μM): 0.94 | Relative IL-6 ([1]; concentration 0.39 μM): 1.07 | Relative IL-6 ([1]; concentration 1.56 μM): 0.93 | Relative IL-6 ([1]; concentration 3.13 μM): 1.24 | Relative IL-6 ([1]; concentration 6.25 μM): 1.24 | Relative IL-6 ([1]; concentration 12.5 μM): 3.60 | Relative IL-6 ([1]; concentration 25 μM): 5.56 | Relative IL-6 ([1]; concentration 50 μM): 8.94 | Relative IL-6 ([1]; concentration 100 μM): 6.48 | Effect: inflammation (IL-6 production, hit direction) [1]: increased IL-6 production; also recorded: ↑ inflammation

FLVMFLSG [Q093]
GDF15 secretion, effect relative to median [2]: 137% | Effect: GDF15 (hit direction) [2]: increased GDF15 production

GKAEF [Q099]
GDF15 secretion, effect relative to median [2]: 80% | Effect: GDF15 (hit direction) [2]: decreased the GDF15 production

GLWEDILYSLNIIKHNNTKGLHHPIQL [Q101]
Effect: viability (hit direction) (C2C12 myoblasts [3]): increasing hits; also recorded: ↑ viability

GSLSTFFALFNRSFTQALGK (Synthetic Q176-A9)
effect on Q176 mediated IL-6 induction (C2C12 cells; Q176 50 μM plus derivative 60 μM): inhibiting the Q176 mediated IL-6 induction

LFSLVLAG [Q132]
Effect: viability (hit direction) (C2C12 myoblasts [3]): decreasing viability hits

LPFEF [Q134]
Effect: viability (hit direction) (C2C12 myoblasts [3]): decreasing viability hits

MAGNSSNFIHKIKQIFTHR [Q138]
Effect: viability (hit direction) (C2C12 myoblasts [3]): increasing hits; also recorded: ↑ viability

MKAEH [Q140]
Effect: viability (hit direction) (C2C12 myoblasts [3]): increasing hits; also recorded: ↑ viability

NNWNN [Q019]
Effect: differentiation (hit direction) (C2C12 myoblasts [4]): increased myotube formation; also recorded: ↑ differentiation

QNSPNIFGQWM [Q097]
Effect: viability (hit direction) (C2C12 myoblasts [3]): decreasing viability hits

SDLPFEH [Q164]
Effect: viability (hit direction) (C2C12 myoblasts [3]): increasing hits; also recorded: ↑ viability

SRNAT [Q192, SRNAT]
viability relative to the median of all samples (MTT) (C2C12 myoblasts [3]; QSM 1 μM, 24 h, C2C12 myoblasts, n=2): 120% | Effect: viability (hit direction) (C2C12 myoblasts [3]): strong increasing hit; also recorded: ↑ viability

SRVSAIILDFLFQRKK (Synthetic Q055-A6)
effect on Q055 mediated IL-6 induction (C2C12 cells; Q055 75 μM plus derivative 90 μM): inhibited the Q055 mediated IL-6 induction

YSPWTNF [Q007]
Effect: inflammation (IL-6 production, hit direction) [1]: increased IL-6 production; also recorded: ↑ inflammation

YSTCDFIM [Q148]
GDF15 secretion, effect relative to median [2]: 80%
